How the values were obtained:
Type in all cases: functional
HOP-62 = assay: Cytotoxicity against Homo sapiens (human) HOP62 cells after 48 hr by SRB assay; settings: HOP-62, 48 h; for TGI: read-out: pTGI (converted)
[1] = test system: Photobacterium leiognathi; assay: Growth inhibition of Photobacterium leiognathi Sh1 assessed as bio-luminescence at 0.1 mg/ml after 10 min by acute action test relative to control; parameters: scale not given: the % may be the effect or the level left
LOX IMVI = assay: Cytotoxicity against Homo sapiens (human) LOXIMVI cells assessed as cell growth at 10 uM after 48 hr by SRB assay relative to control; settings: read-out: Activity
786-0 [2] = assay: Cytotoxicity against Homo sapiens (human) 786-0 cells assessed as cell growth at 10 uM after 48 hr by SRB assay relative to control; settings: 786-0, 48 h, read-out: Activity
[3] = test system: Photobacterium leiognathi; assay: Growth inhibition of Photobacterium leiognathi Sh1 assessed as bio-luminescence at 0.1 mg/ml after 16 to 18 hr by chronic action test relative to control; parameters: scale not given: the % may be the effect or the level left
A549 = assay: Cytotoxicity against Homo sapiens (human) A549 cells assessed as cell growth at 10 uM after 48 hr by SRB assay relative to control; settings: A549, 48 h, read-out: Activity
CAKI-1 = assay: Cytotoxicity against Homo sapiens (human) Caki1 cells assessed as cell growth at 10 uM after 48 hr by SRB assay relative to control; settings: CAKI-1, 48 h, read-out: Activity
786-0 [4] = assay: Cytotoxicity against Homo sapiens (human) 786-0 cells after 48 hr by SRB assay; settings: 786-0, 48 h
[5] = test system: Photobacterium leiognathi; assay: Growth inhibition of Photobacterium leiognathi Sh1 assessed as bio-luminescence at 0.25 mg/ml after 10 min by acute action test relative to control; parameters: scale not given: the % may be the effect or the level left
OVCAR-3 = assay: Cytotoxicity against Homo sapiens (human) OVCAR3 cells assessed as cell growth at 10 uM after 48 hr by SRB assay relative to control; settings: OVCAR-3, 48 h, read-out: Activity
K562 = assay: Cytotoxicity against Homo sapiens (human) K562 cells assessed as cell growth at 10 uM after 48 hr by SRB assay relative to control; settings: K562, 48 h, read-out: Activity
HCT-116 [6] = assay: Cytotoxicity against Homo sapiens (human) HCT116 cells after 48 hr by SRB assay; settings: HCT-116, 48 h
NCI-H460 = assay: Cytotoxicity against Homo sapiens (human) NCI-H460 cells assessed as cell growth at 10 uM after 48 hr by SRB assay relative to control; settings: NCI-H460, 48 h, read-out: Activity
SW-620 = assay: Cytotoxicity against Homo sapiens (human) SW620 cells assessed as cell growth at 10 uM after 48 hr by SRB assay relative to control; settings: SW-620, 48 h, read-out: Activity
RXF 393 = assay: Cytotoxicity against Homo sapiens (human) RXF393 cells after 48 hr by SRB assay; settings: RXF 393, 48 h; for TGI: read-out: pTGI (converted)
HL-60(TB) = assay: Cytotoxicity against Homo sapiens (human) HL-60(TB) cells assessed as cell growth at 10 uM after 48 hr by SRB assay relative to control; settings: HL-60, 48 h, read-out: Activity
IGROV-1 = assay: Cytotoxicity against Homo sapiens (human) IGROV1 cells assessed as cell growth at 10 uM after 48 hr by SRB assay relative to control; settings: IGROV-1, 48 h, read-out: Activity
MDA-MB-435 = assay: Cytotoxicity against Homo sapiens (human) MDA-MB-435 cells assessed as cell growth at 10 uM after 48 hr by SRB assay relative to control; settings: MDA-MB-435, 48 h, read-out: Activity
Hs-578T = assay: Cytotoxicity against Homo sapiens (human) Hs 578T cells after 48 hr by SRB assay; settings: for TGI: read-out: pTGI (converted)
EKVX = assay: Cytotoxicity against Homo sapiens (human) EKVX cells assessed as cell growth at 10 uM after 48 hr by SRB assay relative to control; settings: read-out: Activity
[7] = test system: Photobacterium leiognathi; assay: Growth inhibition of Photobacterium leiognathi Sh1 assessed as bio-luminescence at 0.025 mg/ml after 16 to 18 hr by chronic action test relative to control; parameters: scale not given: the % may be the effect or the level left
[8] = test system: Photobacterium leiognathi; assay: Growth inhibition of Photobacterium leiognathi Sh1 assessed as bio-luminescence at 0.025 mg/ml after 10 min by acute action test relative to control; parameters: scale not given: the % may be the effect or the level left
SR = assay: Cytotoxicity against Homo sapiens (human) SR cells assessed as cell growth at 10 uM after 48 hr by SRB assay relative to control; settings: read-out: Activity
SF-295 = assay: Cytotoxicity against Homo sapiens (human) SF295 cells assessed as cell growth at 10 uM after 48 hr by SRB assay relative to control; settings: SF-295, 48 h, read-out: Activity
KM12 = assay: Cytotoxicity against Homo sapiens (human) KM12 cells assessed as cell growth at 10 uM after 48 hr by SRB assay relative to control; settings: KM12, 48 h, read-out: Activity
DU-145 = assay: Cytotoxicity against Homo sapiens (human) DU145 cells assessed as cell growth at 10 uM after 48 hr by SRB assay relative to control; settings: DU-145, 48 h, read-out: Activity
SF-268 [9] = assay: Cytotoxicity against Homo sapiens (human) SF268 cells assessed as cell growth at 10 uM after 48 hr by SRB assay relative to control; settings: SF-268, 48 h, read-out: Activity
[10] = test system: Photobacterium leiognathi; assay: Growth inhibition of Photobacterium leiognathi Sh1 assessed as bio-luminescence at 0.25 mg/ml after 16 to 18 hr by chronic action test relative to control; parameters: scale not given: the % may be the effect or the level left
SNB-75 = assay: Cytotoxicity against Homo sapiens (human) SNB75 cells after 48 hr by SRB assay; settings: SNB-75, 48 h; for TGI: read-out: pTGI (converted)
MOLT-4 = assay: Cytotoxicity against Homo sapiens (human) MOLT4 cells assessed as cell growth at 10 uM after 48 hr by SRB assay relative to control; settings: MOLT-4, 48 h, read-out: Activity
HCT-116 [11] = assay: Cytotoxicity against Homo sapiens (human) HCT116 cells assessed as cell growth at 10 uM after 48 hr by SRB assay relative to control; settings: HCT-116, 48 h, read-out: Activity
SF-268 [12] = assay: Cytotoxicity against Homo sapiens (human) SF268 cells after 48 hr by SRB assay; settings: SF-268, 48 h
NCI-H522 = assay: Cytotoxicity against Homo sapiens (human) NCI-H522 cells assessed as cell growth at 10 uM after 48 hr by SRB assay relative to control; settings: NCI-H522, 48 h, read-out: Activity
[13] = read-out: pLC50 (the source's name) (converted)

## COc1ccccc1CNC(=O)CSc1nc2ccccc2c2nc(=O)c(-c3ccccc3)nn12
HOP-62
  GI50: 2.34 µM
  LC50: 19.5 µM
  TGI: 5.5 µM
[1]
  Activity: 99.1%
LOX IMVI
  growth at 10 µM: 27.7%
786-0 [2]
  growth at 10 µM: 35.3%
[3]
  Activity: 80%
A549
  growth at 10 µM: 39.7%
CAKI-1
  growth at 10 µM: -13.6%
786-0 [4]
  GI50: 2.24 µM
786-0 [4]; [13]
  CC50: > 100 µM
786-0 [4]; read-out: pTGI
  TGI: 5.25 µM
[5]
  Activity: 122.6%
OVCAR-3
  growth at 10 µM: 21.3%
K562
  growth at 10 µM: 26.4%
HCT-116 [6]
  GI50: 2.69 µM
HCT-116 [6]; [13]
  CC50: > 100 µM
HCT-116 [6]; read-out: pTGI
  TGI: > 100 µM
NCI-H460
  growth at 10 µM: 8.38%
SW-620
  growth at 10 µM: 30.2%
RXF 393
  GI50: 1.78 µM
  LC50: > 100 µM
  TGI: > 100 µM
HL-60(TB)
  growth at 10 µM: 41.9%
IGROV-1
  growth at 10 µM: 18.8%
MDA-MB-435
  growth at 10 µM: 27.7%
Hs-578T
  GI50: 3.09 µM
  LC50: > 100 µM
  TGI: 9.12 µM
EKVX
  growth at 10 µM: 31.4%
[7]
  Activity: 150%
[8]
  Activity: 111.5%
SR
  growth at 10 µM: 42.1%
SF-295
  growth at 10 µM: 18.8%
KM12
  growth at 10 µM: 43.3%
DU-145
  growth at 10 µM: 0.48%
SF-268 [9]
  growth at 10 µM: 43.5%
[10]
  Activity: 73.3%
SNB-75
  GI50: 2.24 µM
  LC50: 43.7 µM
  TGI: 6.61 µM
MOLT-4
  growth at 10 µM: 52.3%
HCT-116 [11]
  growth at 10 µM: 33.1%

## COc1ccc(-c2nn3c(SCC(=O)Nc4ccccc4Cl)nc4ccccc4c3nc2=O)cc1
HOP-62
  GI50: 2.88 µM
  LC50: 35.5 µM
  TGI: 9.77 µM
[1]
  Activity: 87.5%
LOX IMVI
  growth at 10 µM: 42.1%
786-0 [2]
  growth at 10 µM: 32.9%
[3]
  Activity: 35.4%
A549
  growth at 10 µM: -29.6%
CAKI-1
  growth at 10 µM: 54.7%
[5]
  Activity: 75%
OVCAR-3
  growth at 10 µM: 7.18%
K562
  growth at 10 µM: 26.9%
NCI-H460
  growth at 10 µM: 24.1%
SW-620
  growth at 10 µM: 13.9%
RXF 393
  GI50: 2.63 µM
  LC50: 39.8 µM
  TGI: 7.76 µM
SF-268 [12]
  GI50: 2.95 µM
SF-268 [12]; [13]
  CC50: 72.4 µM
SF-268 [12]; read-out: pTGI (converted)
  TGI: 13.8 µM
HL-60(TB)
  growth at 10 µM: 38.6%
IGROV-1
  growth at 10 µM: 38.4%
MDA-MB-435
  growth at 10 µM: 15.7%
Hs-578T
  GI50: 1.95 µM
  LC50: > 100 µM
  TGI: 6.76 µM
EKVX
  growth at 10 µM: 27.2%
NCI-H522
  growth at 10 µM: 36.5%
[7]
  Activity: 54.5%
[8]
  Activity: 83.3%
SR
  growth at 10 µM: 37%
SF-295
  growth at 10 µM: 23.9%
KM12
  growth at 10 µM: 34.8%
DU-145
  growth at 10 µM: -17.9%
SF-268 [9]
  growth at 10 µM: 53.9%
[10]
  Activity: 33.3%
SNB-75
  GI50: 2 µM
  LC50: 25.1 µM
  TGI: 6.03 µM
MOLT-4
  growth at 10 µM: 36.3%
HCT-116 [11]
  growth at 10 µM: 12.2%

— ChEMBL document CHEMBL3045943, “Novel N-aryl(alkaryl)-2-[(3-R-2-oxo-2H-[1,2,4]triazino[2,3-c]quinazoline-6-yl)thio]acetamides: synthesis, cytotoxicity, anticancer activity, COMPARE analysis and docking” (2013)
